# Values joined by “and” are separate entries in the source; they are usually repeats but may differ in a detail not shown here. Identical values can stand only once.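 These data come from cells grown in 96-well plates and exposed to compound for 48 hours at five concentrations. GI50: concentration for 50% inhibition of growth. TGI: total growth inhibition.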
# Assays:
# Assay in all cases: inhibition of tumour cell growth, NCI panel, 48 h
# 786-0 renal = tested on: 786-0 renal
# K-562 leukemia = tested on: K-562 leukemia
# KM12 colon = tested on: KM12 colon
# MALME-3M melanoma = tested on: MALME-3M melanoma
# RPMI-8226 leukemia = tested on: RPMI-8226 leukemia
# SN12C renal = tested on: SN12C renal
# UACC-257 melanoma = tested on: UACC-257 melanoma
# SK-MEL-2 melanoma = tested on: SK-MEL-2 melanoma
# HOP-92 NSCLC = tested on: HOP-92 NSCLC
# RXF 393 renal = tested on: RXF 393 renal
Compound,GI50 (786-0 renal),TGI (786-0 renal) [µM],GI50 (K-562 leukemia) [µM],TGI (K-562 leukemia) [µM],GI50 (KM12 colon),TGI (KM12 colon) [µM],GI50 (MALME-3M melanoma) [µM],TGI (MALME-3M melanoma) [µM],GI50 (RPMI-8226 leukemia),TGI (RPMI-8226 leukemia) [µM],GI50 (SN12C renal),TGI (SN12C renal) [µM],GI50 (UACC-257 melanoma) [µM],TGI (UACC-257 melanoma) [µM],TGI (SK-MEL-2 melanoma) [µM],GI50 (HOP-92 NSCLC),TGI (HOP-92 NSCLC) [µM],GI50 (SK-MEL-2 melanoma),TGI (RXF 393 renal) [µM],GI50 (RXF 393 renal) [nM]
Oc1ccc(Cl)cc1-c1cc(-c2ccccc2Cl)[nH]n1,> 100 µM,> 100,4.59,> 100,2.41 µM,> 100,9.76,> 100,3.15 µM,> 100,6.32 µM,> 100,30.8,> 100,–,–,–,–,–,–
COc1ccccc1NC(=O)CC(=O)n1nc(C)c(N=Nc2ccccc2C(=O)O)c1C,–,> 100,–,> 100,–,> 100,–,> 100,–,> 100,–,> 100,–,> 100,> 100,–,–,–,–,–
Cc1cnc(NC(=O)C(Cc2ccccc2)NC(=O)c2ccccc2)s1 (configuration not stated),15.1 µM,76.2,37.2,> 100,3.82 µM,14.7,24.2,> 100,2.7 µM,9.04,3.05 µM,17.5,1.14,3.16,–,29.9 µM,> 100,–,–,–
C=CCc1cc(OC)c2c(c1)C(O)CC(c1ccc(OC)c(OC)c1)O2 (configuration not stated),–,> 100,–,> 100,–,> 100,–,–,–,–,–,> 100,–,> 100,> 100,–,> 100,–,–,–
COC(=O)[C@@H](C)C[C@H](Cc1ccc(F)cc1)NC(=O)c1csc([C@@H](C[C@H](C(C)C)N(C)C(=O)[C@@H](NC(=O)[C@H]2CCCCN2C)C(C)C)OC(C)=O)n1,0.00319 µM and 0.0147 µM,> 16.7,–,> 16.7,0.000953 µM and 0.00636 µM,> 16.7,4.51,> 16.7,0.00108 µM and 0.00682 µM,> 16.7,0.00197 µM and 0.013 µM,> 16.7,> 16.7,> 16.7,> 16.7,0.215 µM and 0.0783 µM,11.8,0.000792 µM and 0.00503 µM,–,–
CCOC(=O)COc1cccc2c1C(=O)CCO2,–,> 100,–,> 100,–,> 100,–,> 100,–,> 100,–,> 100,–,> 100,> 100,–,–,–,–,–
CCOC(=O)C(Sc1ccccc1)c1c(OC)cc(=O)oc1/C=[N+](/[O-])c1ccc(N(C)C)cc1 (configuration not stated),–,42.4,–,23.8,–,47.4,–,58.5,–,48,–,32,–,28.7,77.5,–,–,–,32.5,–
COC(=O)Nc1nc2ccc(S(=O)c3ccccc3)cc2[nH]1 (configuration not stated),5.2 µM,> 100,–,–,4.48 µM,> 100,5.21,> 100,5.11 µM,> 100,6.98 µM,> 100,> 100,> 100,> 100,9.88 µM,> 100,3.29 µM,26.7,3280
CC(=O)C(CN(C(C)C)C(C)C)C(c1ccccc1)c1c(O)c2ccccc2oc1=O (configuration not stated),–,> 100,–,> 100,–,> 100,–,> 100,–,> 100,–,> 100,–,> 100,> 100,–,–,–,> 100,–
COc1cccc(NC(=O)CC(=O)n2nc(C)c(N=Nc3ccccc3)c2C)c1,–,> 100,–,–,–,> 100,–,> 100,–,> 100,–,> 100,–,> 100,–,–,> 100,–,–,–
c1cc2c(cc1NC1=NCCO1)CCC2,–,> 10,–,> 10,–,> 10,–,> 10,–,> 10,–,> 10,–,–,> 10,–,> 10,–,> 10,–
CCCCCCCCSC1=CC(=O)c2nc3ccccc3c3ccnc1c23,> 100 µM,> 100,27.4,> 100,> 100 µM,> 100,83.3,> 100,60.2 µM,> 100,14 µM,> 100,41.1,> 100,> 100,80 µM,> 100,> 100 µM,–,–
O=[N+]([O-])c1cnc(Sc2ccncn2)s1,6.72 µM,18.4,1.31,3.8,10.8 µM,23.1,2.07,3.94,–,–,3.24 µM,8.41,2.94,7.5,21.9,1.99 µM,4.4,7.99 µM,1.68,312
COc1ccc(C2=CSc3cc(Cl)c(C)cc3S(=O)(=O)N2C(C)=O)cc1,39.1 µM,> 100,27.8,> 100,23.1 µM,92.2,–,–,26 µM,94,13.7 µM,41.7,36.2,> 100,> 100,21.9 µM,> 100,63.4 µM,> 100,35600
O=C(O)C(Cc1ccccc1)N1C(=O)N/C(=C\c2ccc(F)cc2)C1=O (configuration not stated),–,> 100,–,> 100,–,> 100,–,–,–,> 100,–,> 100,–,> 100,> 100,–,> 100,–,> 100,–
COc1ccc(-n2/c(=N/C(=S)N(C)C)ss/c2=N\C(=S)N(C)C)cc1,–,> 100,–,> 100,–,> 100,–,> 100,–,> 100,–,> 100,–,> 100,> 100,–,–,–,> 100,–
COc1cc2nc(-c3ccc(C(F)(F)F)cc3)cc(OCCCN3CCC(O)CC3)c2cc1OC,4.72 µM,19.8,1.79,16.7,6.87 µM,24,2.65,11.8,–,–,1.44 µM,19.7,2.28,6.5,16.5,1.68 µM,9.64,3.85 µM,7.53,1340

# — PubChem BioAssay (NCI)
